This note sets out measurements from patent publication US9682938B2, “Pyrazolone derivatives as nitroxyl donors” (Cardioxyl Pharmaceuticals, Inc., priority 2014, dated 2017).

What all share (assay type): in vitro ADME
Data set [1] is described as follows: In vitro plasma stability, dog plasma. To be noted: male, pH 7.4, 5 μM, 37° C., sampling 0-360 minutes, read-out: T1/2 Dog. On the procedure: (§1) Certain compounds from Table 1 were tested for their stability in plasma. The assay system comprised plasma from rat, dog or human (at least 3 donors, male, pooled) at pH 7.4, and (ii) an anticoagulant (sodium heparin or sodium citrate). Each test compound (5 μM) was incubated in plasma at 37° C. on a THERMOMIXER® with shaking. Three samples (n=3) were taken at each of seven sampling time points: 0, 10, 30, 60, 90, 180 and 360 minutes. The samples were immediately combined with 3 volumes (i.e., 3 times the volume of plasma) of acetonitrile containing 1% formic acid and an internal standard to terminate the reaction. AB SCIEX API 3000 LC-MS/MS analysis of the test compounds was performed without a standard curve. Plasma half-lives (T1/2) of the test compounds were determined from graphs of the percent remaining values using the peak area response ratio.

A short description of data set [2]: In vitro plasma stability, rat plasma. The settings on record: male, pH 7.4, 5 μM, 37° C., sampling 0-360 minutes, read-out: T1/2 Rat. The procedure:
as §1

Data set [3] in a line: In vitro plasma stability, human plasma. The settings on record: male, pH 7.4, 5 μM, 37° C., sampling 0-360 minutes, read-out: T1/2 Human. The procedure: as §1

As for `CO/N=C(\C)C1(NO)C(=O)N(C)N=C1c1ccccc1` (stereo not drawn) [Compound 46, 4-(hydroxyamino)-4-(1-(methoxyimino)ethyl)-2-methyl-5-phenyl-2,4-dihydro-3H-pyrazol-3-one], the half-life at 5 μM in data set [1] was determined as 12 min; in data set [2], 9 min; in data set [3], 11 min.
`COc1ccc(C2=NN(C)C(=O)C2(C)NO)cc1` (stereo not drawn) [Compound 53, 4-(hydroxyamino)-3-(4-methoxyphenyl)-1,4-dimethyl-1H-pyrazol-5(4H)-one]: the half-life at 5 μM in data set [1] was 256 min; in data set [2] it was 350 min; in data set [3] it was 480 min.
For `CN1N=C(c2ccc(OC(F)(F)F)cc2)C(C)(NO)C1=O` (stereo not drawn) [Compound 59, 4-(hydroxyamino)-1,4-dimethyl-3-(4-(trifluoromethoxy)phenyl)-1-pyrazol-5(4H)-one], the values for the half-life at 5 μM in data set [1], in data set [2] and in data set [3] were 150 min, 80 min and 77 min, respectively.
Turning to `CO/N=C(\C)C1(NO)C(=O)N(C)N=C1c1ccc(F)cc1` (stereo not drawn) [Compound 64, 3-(4-fluorophenyl)-4-(hydroxyamino)-4-(1-(methoxyimino)ethyl)-1-methyl-1H-pyrazol-5(4H)-one], the values for the half-life at 5 μM in data set [1], in data set [2] and in data set [3] were 16 min, 6 min and 8 min, respectively.
In the case of `CC1=NN(C)C(=O)C1(NO)c1ccc(Cl)cc1` (stereo not drawn) [Compound 66, 4-(4-chlorophenyl)-4-(hydroxyamino)-1,3-dimethyl-1H-pyrazol-5(4H)-one], the figures for the half-life at 5 μM in data set [1], in data set [2] and in data set [3] were 7 min, 7 min and 10 min, respectively.
Take `CN1N=C(c2ccc(SC(F)(F)F)cc2)C(C)(NO)C1=O` (stereo not drawn) [Compound 67, 4-(hydroxyamino)-1,4-dimethyl-3-(4-((trifluoromethyl)thio)phenyl)-1H-pyrazol-5(4H)-one]: the values for the half-life at 5 μM in data set [1], in data set [2] and in data set [3] were 78 min, 106 min and 59 min, respectively.
With `CN1N=C(c2ccc(S(C)(=O)=O)c(Cl)c2)C(C)(NO)C1=O` (stereo not drawn) [Compound 70, 3-(3-Chloro-4-methanesulfonylphenyl)-4-(hydroxyamino)-1,4-dimethyl-4,5-dihydro-1H-pyrazol-5-one], the half-life at 5 μM in data set [1] was found to be 27 min; in data set [2], 43 min; in data set [3], 31 min.
For the molecule `COC(=O)c1ccc(C2=NN(C)C(=O)C2(C)NO)cc1` (stereo not drawn) [Compound 71, Methyl 4-[4-(hydroxyamino)-1,4 dimethyl-5-oxo-4,5-dihydro-1H-pyrazol-3-yl]benzoate], the half-life at 5 μM is 71 min in data set [1], 3 min in data set [2] and 58 min in data set [3].
For `CN1N=C(c2ccc(S(C)(=O)=NC(=O)C(F)(F)F)cc2)C(C)(NO)C1=O` (stereo not drawn) [Compound 72, 2,2,2-Trifluoro-N-({4-[4-(hydroxyamino)-1,4-dimethyl-5-oxo-4,5-dihydro-1H-pyrazol-3-yl]phenyl}(methyl)oxo-λ^6-sulfanylidene)acetamide] the same measures were 12 min, 9 min and 13 min.
Taken in the same sequence, the figures for `COc1ccc(C2(NO)C(=O)N(C)N=C2C)cc1OC` (stereo not drawn) [Compound 73, 4-(3,4-Dimethoxyphenyl)-4-(hydroxyamino)-1,3-dimethyl-4,5-dihydro-1H-pyrazol-5-one] were 13 min, 18 min and 14 min.
As for `CN1N=C(c2ccc(C(=O)O)cc2)C(C)(NO)C1=O` (stereo not drawn) [Compound 74, 4-[4-(Hydroxyamino)-1,4-dimethyl-5-oxo-4,5-dihydro-1H-pyrazol-3-yl]benzoic acid], the half-life at 5 μM in data set [1] came out at 175 min; in data set [2], 243 min; in data set [3], 183 min.
In the case of `COc1cc(C2=NN(C)C(=O)C2(C)NO)ccc1S(C)(=O)=O` (stereo not drawn) [Compound 77, 4-(Hydroxyamino)-3-(4-methanesulfonyl-3-methoxyphenyl)-1,4-dimethyl-4,5-dihydro-1H-pyrazol-5-one], the half-life at 5 μM in data set [1] was 37 min; in data set [2], 62 min; in data set [3], 40 min.
For `Cc1cc(C2=NN(C)C(=O)C2(C)NO)cc(C)c1S(C)(=O)=O` (stereo not drawn) [Compound 79, 4-(Hydroxyamino)-3-(4-methanesulfonyl-3,5-dimethylphenyl)-1,4-dimethyl-4,5-dihydro-1H-pyrazol-5-one] the same measures were 49 min, 85 min and 49 min.
With `CN1N=C(c2ccc(C(=O)N3CCOCC3)cc2)C(C)(NO)C1=O` (stereo not drawn) [Compound 81, 4-(Hydroxyamino)-1,4-dimethyl-3-[4-(morpholine-4-carbonyl)phenyl]-4,5-dihydro-1H-pyrazol-5-one], the half-life at 5 μM in data set [1] came to 84 min; in data set [2], 148 min; in data set [3] it was 76 min.
For `CN1N=C(c2ccc(S(C)(=O)=O)c(N3CCOCC3)c2)C(C)(NO)C1=O` (stereo not drawn) [Compound 82, 4-(Hydroxyamino)-3-[4-methanesulfonyl-3-(morpholin-4-yl)phenyl]-1,4-dimethyl-4,5-dihydro-1H-pyrazol-5-one], the half-life at 5 μM in data set [1] was found to be 56 min; in data set [2] it was 69 min; in data set [3] it was 46 min.
For the molecule `COCCN(C)c1cc(C2=NN(C)C(=O)C2(C)NO)ccc1S(C)(=O)=O` (stereo not drawn) [Compound 83, 4-(Hydroxyamino)-3-{4-methanesulfonyl-3-[(2-methoxyethyl)(methyl)amino]phenyl}-1,4-dimethyl-4,5-dihydro-1H-pyrazol-5-one], the half-life at 5 μM is 66 min in data set [1], 89 min in data set [2] and 51 min in data set [3].
Turning to `CN1N=C(c2ccc(C(=O)N3CCC(F)(F)CC3)cc2)C(C)(NO)C1=O` (stereo not drawn) [Compound 85, 3-[4-(4,4-Difluoropiperidine-1-carbonyl)phenyl]-4-(hydroxyamino)-1,4-dimethyl-4,5-dihydro-1H-pyrazol-5-one], the figures for the half-life at 5 μM in data set [1], in data set [2] and in data set [3] were 86 min, 125 min and 105 min, respectively.
Turning to `CCS(=O)(=O)c1ccc(C2=NN(C)C(=O)C2(C)NO)cc1` (stereo not drawn) [Compound 86, 3-[4-(Ethanesulfonyl)phenyl]-4-(hydroxyamino)-1,4-dimethyl-4,5-dihydro-1H-pyrazol-5-one], the values for the half-life at 5 μM in data set [1], in data set [2] and in data set [3] were 39 min, 61 min and 47 min, respectively.
In the case of `CN1N=C(c2ccc(S(C)(=O)=O)c(N(C)C)c2)C(C)(NO)C1=O` (stereo not drawn) [Compound 87, 3-[3-(Dimethylamino)-4-methanesulfonylphenyl]-4-(hydroxyamino)-1,4-dimethyl-4,5-dihydro-1H-pyrazol-5-one], the half-life at 5 μM was 42 min in data set [1], 63 min in data set [2] and 47 min in data set [3].
On to `CN1CCN(c2cc(C3=NN(C)C(=O)C3(C)NO)ccc2S(C)(=O)=O)CC1` (stereo not drawn) [Compound 88, 4-(Hydroxyamino)-3-[4-methanesulfonyl-3-(4-methylpiperazin-1-yl)phenyl]-1,4-dimethyl-4,5-dihydro-1H-pyrazol-5-one], for which the half-life at 5 μM in data set [1] is 42 min; in data set [2], 65 min; in data set [3] it was 49 min.
